Data reported in US20260207641A1, “COMBINATION THERAPY FOR CANCER USING ROS-ACTIVATED PRODRUGS AND ROS-AMPLIFYING THERAPEUTICS” (UWM Research Foundation, Inc., priority 2023, published 2026).
Several values for one entry are separate records, joined by “and”; a condition that tells them apart may be missing. Equal entries are not always repeated. Where two headings read alike, the source gives them in different places.

Legend:
MDA-MB-468 cells [1] = experiment: Cytotoxicity dose response (CellTiter-Glo, 48 h); assay type: cell-based, human
MDA-MB-468 cells [2] = conditions: cited from earlier work
MCF 10A (normal cells) = experiment: Cytotoxicity dose response (CellTiter-Glo, 48 h); assay type: cell-based, human
HMEC cells = experiment: cells; assay type: cell-based; conditions: Homo sapiens, 48 h
U-87 MG cells [3] = system: U-87 MG cells
MDA-MB-231 cells = experiment: cells; assay type: cell-based, human
MDA-MB-468 cells [4] = assay type: cell-based, human
[5] = system: intracellular H2O2 in MDA-MB-468 cells; experiment: Intracellular H2O2 measurement (AbGreen indicator); assay type: cell-based, human; conditions: MDA-MB-468 under ascorbic acid treatment, 48 h
U-87 MG cells [6] = experiment: cells; assay type: cell-based
[7] = system: extracellular H2O2 in MCF 10A cells; experiment: Extracellular H2O2 measurement (Amplex Red assay); assay type: cell-based, human; conditions: MCF 10A at maximum safe ascorbic acid dose, 48 h
[8] = system: extracellular H2O2 in MDA-MB-468 cells; experiment: Extracellular H2O2 measurement (Amplex Red assay); assay type: cell-based, human; conditions: MDA-MB-468 at maximum safe ascorbic acid dose, 48 h
MCF7 cells [9] = experiment: cells; assay type: cell-based, human
[10] = system: MDA-MB-468 breast cancer xenograft; design: species or system immune-deficient female nude mice; conditions: mouse, in vivo
[11] = system: extracellular H2O2 in U-87 MG cells; experiment: Extracellular H2O2 measurement (Amplex Red assay); assay type: cell-based; conditions: U-87 MG at maximum safe ascorbic acid dose, 48 h
[12] = system: extracellular H2O2 in MCF7 cells; experiment: Extracellular H2O2 measurement (Amplex Red assay); assay type: cell-based, human; conditions: 48 h
MCF 10A cells = assay type: cell-based, human
MCF7 cells [13] = system: MCF7 cells
MDA-MB-468 cells [14] = assay type: cell-based, human; remark: listed apart in the source
MDA-MB-436 cells = experiment: cells; assay type: cell-based, human

With `O=C(O)CCCc1ccc(N(CCCl)CCCl)cc1` [Chlorambucil] the “Fold Change” value (MDA-MB-468 cells [1]) was 1 fold, the IC50 (MDA-MB-468 cells [1]; Homo sapiens, MDA-MB-468, 48 h) was 30.2 ± 2.3 µM and the IC50 (MDA-MB-468 cells [1]; Homo sapiens, MDA-MB-468, read-out: IC50 in combination with Vitamin C Safe Dose) was 28.7 ± 2.4 µM. For the same compound, the IC50 (MDA-MB-468 cells [2]) was 34.4 µM.
For `O=C(OC1Cc2c(O)cc(O)cc2OC1c1cc(O)c(O)c(O)c1)c1cc(O)c(O)c(O)c1` (stereo not drawn) [EGCG], the “MSD (Maximum Safe Dose)” value (MDA-MB-468 cells [1]) was 12.50 µM, the “SI (Selectivity Index)” value (MDA-MB-468 cells [1]) was 0.5 and the “SI of Prodrug Combined with Maximum Safety Dose of Pro-oxidant” value (shortened to “SI of Prodrug Combined”) (MDA-MB-468 cells [1]) was 2. For the same compound, the IC50 (MDA-MB-468 cells [1]; Homo sapiens, MDA-MB-468, 48 h) was 65 ± 3.45 µM, the “MSD (Maximum Safe Dose)” value (MCF 10A (normal cells)) was 6.25 µM and the IC50 (MCF 10A (normal cells); Homo sapiens, MCF-10A, 48 h) was 28.5 ± 2.55 µM.
For `COc1cc(/C=C/C(=O)N2CCC=CC2=O)cc(OC)c1OC` [Piperlogumine], the “MSD (Maximum Safe Dose)” value (MDA-MB-468 cells [1]) was 0.78 µM, the “SI (Selectivity Index)” value (MDA-MB-468 cells [1]) was 2 and the “SI of Prodrug Combined” value (MDA-MB-468 cells [1]) was 6. The IC50 (MDA-MB-468 cells [1]; Homo sapiens, MDA-MB-468, 48 h) was 2.24 ± 0.05 µM, the “MSD (Maximum Safe Dose)” value (MCF 10A (normal cells)) was 1.56 µM and the IC50 (MCF 10A (normal cells); Homo sapiens, MCF-10A, 48 h) was 4.91 ± 0.51 µM.
With `CCCOC(=O)c1cc(O)c(O)c(O)c1` [Propyl Gallate] the “MSD (Maximum Safe Dose)” value (MDA-MB-468 cells [1]) was 25.00 µM, the “SI (Selectivity Index)” value (MDA-MB-468 cells [1]) was 1 and the “SI of Prodrug Combined” value (MDA-MB-468 cells [1]) was 3. The IC50 (MDA-MB-468 cells [1]; Homo sapiens, MDA-MB-468, 48 h) was 49.2 ± 1.83 µM, the “MSD (Maximum Safe Dose)” value (MCF 10A (normal cells)) was 12.50 µM and the IC50 (MCF 10A (normal cells); Homo sapiens, MCF-10A, 48 h) was 51.4 ± 5.45 µM.
For `O=c1c(O)c(-c2ccc(O)c(O)c2)oc2cc(O)cc(O)c12` [Quercetin], the “MSD (Maximum Safe Dose)” value (MDA-MB-468 cells [1]) was 3.13 µM, the IC50 (MDA-MB-468 cells [1]; Homo sapiens, MDA-MB-468, 48 h) was 15.8 ± 2.15 µM and the “MSD (Maximum Safe Dose)” value (MCF 10A (normal cells)) was 6.25 µM. It also gave an IC50 (MCF 10A (normal cells); Homo sapiens, MCF-10A, 48 h) of 19.6 ± 1.24 µM.
With `O=C1O[C@H]([C@@H](O)CO)C(O)=C1O` [Vitamin C] the IC50 (HMEC cells) was 2670 ± 400 µM, the “Maximum Safe Dose (MSD)” value (MDA-MB-468 cells [1]) was 1 mM and 1.00 mM and the “dose found to be safe” value (U-87 MG cells [3]) was 0.25 mM. For the same compound, the “Maximum Safe Dose (MSD)” value (MDA-MB-231 cells) was 1 mM, the IC50 (MDA-MB-231 cells; Homo sapiens, MDA-MB-231, 48 h) was 2230 ± 300 µM and the “dose found to be safe” value (MDA-MB-468 cells [4]) was 1 mM. The “intracellular H2O2 level compared to untreated samples” value [5] was “significant threefold increase”, the “Maximum Safe Dose (MSD)” value (U-87 MG cells [6]) was 0.3 mM and 0.30 mM and the IC50 (U-87 MG cells [6]; Homo sapiens, U-87 MG, 48 h) was 1000 µM. The “extracellular H2O2 level” value [7] was ~5 µM, the IC50 (MCF 10A (normal cells)) was 4200 ± 400 µM and the “Maximum Safe Dose (MSD)” value (MCF 10A (normal cells)) was 1.25 mM. For the same compound, the “extracellular H2O2 level” value [8] was “around 10 μM”, the IC50 (MCF7 cells [9]) was 970 ± 70 µM and the “Maximum Safe Dose (MSD)” value (MCF7 cells [9]) was 0.25 mM. The IC50 (MCF7 cells [9]; Homo sapiens, MCF7, 48 h) was 1000 µM, the “effect on tumor size” value [10] was “observable inhibitory effects on the tumor size” and the “extracellular H2O2 level” value [11] was ~7 µM. The “H2O2 generated (most substantial change)” value ([12]; MCF7, increasing mM ascorbic acid) was “over 20 μM”, the “extracellular H2O2 level” value ([12]; MCF7 at maximum safe ascorbic acid dose) was ~7 µM and the “dose found to be safe” value (MCF 10A cells) was 1 mM. The “dose found to be safe” value (MCF7 cells [13]) was 0.25 mM, the “observable DNA damage” value (MDA-MB-468 cells [14]) was “did not show any observable DNA damage” and the “Maximum Safe Dose (MSD)” value (MDA-MB-436 cells) was 1 mM. It also gave an IC50 (MDA-MB-436 cells; Homo sapiens, MDA-MB-436, 48 h) of 1390 ± 100 µM.
With `Cc1c(C)c2c(c(C)c1O)CCC(C)(CCCC(C)CCCC(C)CCCC(C)C)O2` (stereo not drawn) [Vitamin E] the “MSD (Maximum Safe Dose)” value (MDA-MB-468 cells [1]) was 1.56 µM, the “SI (Selectivity Index)” value (MDA-MB-468 cells [1]) was 5 and the “SI of Prodrug Combined” value (MDA-MB-468 cells [1]) was 11. For the same compound, the IC50 (MDA-MB-468 cells [1]; Homo sapiens, MDA-MB-468, 48 h) was 76.5 ± 6.62 µM, the “MSD (Maximum Safe Dose)” value (MCF 10A (normal cells)) was 25.00 µM and the IC50 (MCF 10A (normal cells); Homo sapiens, MCF-10A, 48 h) was 376 ± 21.4 µM.
With `CC1(C)CCC2=C(O1)c1ccccc1C(=O)C2=O` [β-Lapachone] the “MSD (Maximum Safe Dose)” value (MDA-MB-468 cells [1]) was 0.78 µM, the “SI (Selectivity Index)” value (MDA-MB-468 cells [1]) was 3 and the “SI of Prodrug Combined” value (MDA-MB-468 cells [1]) was 2. For the same compound, the IC50 (MDA-MB-468 cells [1]; Homo sapiens, MDA-MB-468, 48 h) was 1.06 ± 0.17 µM, the “MSD (Maximum Safe Dose)” value (MCF 10A (normal cells)) was 1.56 µM and the IC50 (MCF 10A (normal cells); Homo sapiens, MCF-10A, 48 h) was 3.42 ± 0.22 µM.
For Arsenic Trioxide, the “MSD (Maximum Safe Dose)” value (MDA-MB-468 cells [1]) was 0.79 µM, the “SI (Selectivity Index)” value (MDA-MB-468 cells [1]) was 1 and the “SI of Prodrug Combined” value (MDA-MB-468 cells [1]) was 5. The IC50 (MDA-MB-468 cells [1]; read-out: IC50) was 6.27 ± 0.33 µM, the “MSD (Maximum Safe Dose)” value (MCF 10A (normal cells)) was 1.56 µM and the IC50 (MCF 10A (normal cells); read-out: IC50) was 8.52 ± 0.4 µM.
